Laboratory results reported in patent publication US20180303101A1, “METHOD OF IMPROVING GRASS QUALITY” (priority 2004, published 2018).

Legend:
Type in all cases: in vivo
[1] = tested on: Penncross creeping bentgrass; assay: Canopy photochemical efficiency (Fv/Fm) at high temperature treatment (Example 1); details: plants with and without pretreatment
Description: (§1) The following test methods were used to compare the effectiveness of a phthalocyanine composition according to the invention with known compositions. The following compositions were used in the experiments: Pigment Green 7 obtained from Sun Chemical Corporation as the water-dispersible product SUN T-64-1660 (containing 45 to 55 wt. % of Pigment Green 7) was used alone. A mixture of Pigment Green 7 and fosetyl-al was used as the commercially available product Chipco® Signature™ fungicide from Bayer Environmental Science, Montvale, N.J. The compound fosetyl-al was used as Chipco® Aliette® WDG fungicide available from Bayer Environmental Science, Montvale N.J.
(§2) Seeds of “Penncross” creeping bentgrass were sown in polyvinyl chloride (PVC) tubes (10 cm in diameter and 20 cm in length) filled with coarse sand. […]
(§3) Chlorophyll and carotenoids were extracted by soaking 50 mg fresh shoots in 20 ml dimethyl sulfoxide (DMSO) in the dark for 72 hours. Absorbance of each extractant at 663 nm, 645 nm, and 470 nm was used to determine chlorophyll content using the formula of Arnon (1949) and carotenoids content using the formula of Lichtenthaler and Wellburn (1983) Canopy photochemical efficiency was estimated by measuring chlorophyll fluorescence (Fv/Fm) using plant photosynthesis efficiency analyzer (available from ADC Bioscientific Limited, Herts, England).

[2] = tested on: Penncross creeping bentgrass; assay: Turf quality visual rating at high temperature treatment (Example 1); details: high temperature 35/30° C., biweekly foliar application
Description: as §1
Seeds of “Penncross” creeping bentgrass were sown in polyvinyl chloride (PVC) tubes (10 cm in diameter and 20 cm in length) filled with coarse sand. Plants were kept in a growth chamber for 90 days before treatment stated to allow root and canopy establishment. The daily temperature in the growth chamber was 20/16° C., the photosynthetic photon flux density was 400 μmol m−2 s−1, and the photoperiod was 12 hours/day. Turf was mowed twice weekly at 4 mm with scissors, irrigated every other day until there was free drainage from the bottom of tubes, and fertilized weekly with 40 ml full-strength Hoagland's nutrient solution (Hoagland and Arnon, 1950). Insecticide was applied to kill whitefly when necessary. […]

[3] = tested on: Penncross creeping bentgrass; assay: Root mortality at high temperature treatment (Example 1); details: plants with or without pretreatment
Description: as §1
Seeds of “Penncross” creeping bentgrass were sown in polyvinyl chloride (PVC) tubes (10 cm in diameter and 20 cm in length) filled with coarse sand. Plants were kept in a growth chamber for 90 days before treatment stated to allow root and canopy establishment. The daily temperature in the growth chamber was 20/16° C., the photosynthetic photon flux density was 400 μmol m−2 s−1, and the photoperiod was 12 hours/day. […]
Root mortality was measured using the method of Knievel (1973) with modification.
Samples of 0.5 g clean fresh roots were incubated with 10 mL 0.6% 2,3,5-triphenyltetrazolium chloride (in 0.05 M phosphate buffer, pH 7.4) for 24 hours in the dark at 30° C. […] Absorbance at 490 nm was used to determine root mortality.

[4] = tested on: Penncross creeping bentgrass; assay: Chlorophyll content at high temperature treatment (Example 1)
Description: as §1, §2, §3

[5] = tested on: Corn; assay: Glasshouse study, soil drench applications of pigment on corn growth and photosynthesis (Example 10); details: for Chlorophyl: CM1000 meter readings; for Total height (avg, cm): soil to youngest fully expanded leaf tip; for Distance between collars (avg, cm): two top collars; for Net photosynthesis: youngest fully collared leaf
Description: A glasshouse study was conducted to determine the effect of soil drench applications of phthalocyanine pigment on corn growth and photosynthesis.
Corn was grown from seed in 6 inch (15 cm) pots in a potting soil mix. Pigment Green 7 was diluted in water in the four amounts per gallon (3.8 liter) of water indicated in the Table and applied directly to the soil. Treatments were initiated in March when corn was at the three leaf stage. Approximately 250 ml of the aqueous pigment mixture was applied to the soil on day 0 and day 6. On day 21 plants were placed in trays containing the pigment Water was maintained in the trays as needed to replenished evapotranspiration.
Net photosynthesis of the youngest fully collared leaf (i.e., leaf 7) was measured using a LiCor 6400 instrument as μmol m−2s−1 of CO2. Leaf chlorophyll measurements were made using a CM1000 leaf […] meter (Spectrum Technologies). Plant height, stem diameter, and leaf width were also measured at the end of the conclusion of the study.

[6] = tested on: creeping bentgrass (variety Penncross) turf; assay: Bentgrass color rating after foliar spray (Example 2); details: 6 weeks after treatment; 6.8, 13.9 and 20.4 grams per 1000 sq. ft.; analysis of variance
Description: Pigment Green 7 was suspended in water and applied as a foliar spray to creeping bentgrass (variety Penncross) turf with a pressurized sprayer at a spray volume of 1.37 gallons of water per 1000 sq. ft. (ca. 560 l/ha). Pigment Green 7 was applied at rates of 6.8, 13.9, and 20.4 grams per 1000 sq. ft. (0.73, 1.5, and 2.2 kg/ha, respectively). Each treatment was replicated 4 times. An untreated plot was included and was also replicated four times. The average color of the bentgrass was visually evaluated at 6 weeks after treatment. Color was evaluated on a qualitative scale from 1-9, with 9 being the highest quality and 1 the lowest quality.

Pigment Green 7
Photochemical efficiency (Fv/Fm) [1]: highest
Turf quality (visual, scale 0 to 9) ([2]; plants with pretreatment (sprayed 4 weeks before heat)): highest
Turf quality (visual, scale 0 to 9) ([2]; plants without pretreatment): higher turf quality than applications of Signature fungicide, Aliette fungicide, and water
Root mortality [3]: lower root mortality than application of Signature fungicide and Aliette fungicide
Chlorophyll content (fresh weight basis) ([4]; plants with pretreatment): highest
Chlorophyll content (fresh weight basis) ([4]; plants without pretreatment): higher with application of Signature fungicide and Pigment Green 7 than with application of Aliette fungicide
Height soil to collar (avg, cm) ([5]; pigment concentration 1 g/gal): 58 cm
Leaf width (avg, cm) ([5]; pigment concentration 1 g/gal): 5.2 cm
Stem diameter (avg, cm) ([5]; pigment concentration 1 g/gal): 1.04 cm
Chlorophyl ([5]; pigment concentration 1 g/gal): 141
Total height (avg, cm) ([5]; pigment concentration 1 g/gal): 145 cm
Distance between collars (avg, cm) ([5]; pigment concentration 1 g/gal): 4.9 cm
Net photosynthesis ([5]; pigment concentration 1 g/gal): 13.0 μmol m−2s−1 of CO2
Height soil to collar (avg, cm) ([5]; pigment concentration 8 g/gal): 59 cm
Leaf width (avg, cm) ([5]; pigment concentration 8 g/gal): 5.6 cm
Stem diameter (avg, cm) ([5]; pigment concentration 8 g/gal): 0.99 cm
Chlorophyl ([5]; pigment concentration 8 g/gal): 122
Total height (avg, cm) ([5]; pigment concentration 8 g/gal): 148 cm
Distance between collars (avg, cm) ([5]; pigment concentration 8 g/gal): 5.5 cm
Net photosynthesis ([5]; pigment concentration 8 g/gal): 12.8 μmol m−2s−1 of CO2
Height soil to collar (avg, cm) ([5]; pigment concentration 16 g/gal): 55 cm
Leaf width (avg, cm) ([5]; pigment concentration 16 g/gal): 5.2 cm
Stem diameter (avg, cm) ([5]; pigment concentration 16 g/gal): 1.01 cm
Chlorophyl ([5]; pigment concentration 16 g/gal): 115
Total height (avg, cm) ([5]; pigment concentration 16 g/gal): 137 cm
Distance between collars (avg, cm) ([5]; pigment concentration 16 g/gal): 5.7 cm
Net photosynthesis ([5]; pigment concentration 16 g/gal): 13.6 μmol m−2s−1 of CO2
Height soil to collar (avg, cm) ([5]; pigment concentration 32 g/gal): 54 cm
Leaf width (avg, cm) ([5]; pigment concentration 32 g/gal): 5.6 cm
Stem diameter (avg, cm) ([5]; pigment concentration 32 g/gal): 1.00 cm
Chlorophyl ([5]; pigment concentration 32 g/gal): 132
Total height (avg, cm) ([5]; pigment concentration 32 g/gal): 132 cm
Distance between collars (avg, cm) ([5]; pigment concentration 32 g/gal): 6.0 cm
Net photosynthesis ([5]; pigment concentration 32 g/gal): 13.3 μmol m−2s−1 of CO2
Color rating (visual, scale 1-9) versus untreated check [6]: significantly different than the untreated check
